Measured values: the supplement of paper PMC11451515

Tested on: NOMO1
Test: cell viability relative to DMSO control; higher = less cytotoxic
Conditions: 48 h
Summary of the method: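 Viability is a per-plate percentage relative to DMSO wells, with cell-free wells as background. CellTiter-Glo One luminescence was read after 48 h at 37°C on 1536-well plates (5 μl) of NOMO1 or SEM (500 cells/well) or P12-Ichikawa (1000 cells/well) leukemia cells. The cells had been adapted for at least four passages in each medium and pin-dosed with library compounds in DMSO from 47 μM to 0.79 nM in 11 threefold steps.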

[1] = HPLM + 10% dialyzed FBS, 0.000781 µM
[2] = HPLM + 10% dialyzed FBS, 0.00234 µM
[3] = HPLM + 10% dialyzed FBS, 0.00702 µM
[4] = HPLM + 10% dialyzed FBS, 0.0211 µM
[5] = HPLM + 10% dialyzed FBS, 0.0632 µM
[6] = HPLM + 10% dialyzed FBS, 0.19 µM
[7] = HPLM + 10% dialyzed FBS, 0.569 µM
[8] = HPLM + 10% dialyzed FBS, 1.71 µM
[9] = HPLM + 10% dialyzed FBS, 5.12 µM
[10] = HPLM + 10% dialyzed FBS, 15.4 µM
[11] = HPLM + 10% dialyzed FBS, 46.1 µM
[12] = RPMI 5 mM glucose + 10% FBS, 0.000781 µM
[13] = RPMI 5 mM glucose + 10% FBS, 0.00234 µM
[14] = RPMI 5 mM glucose + 10% FBS, 0.00702 µM
[15] = RPMI 5 mM glucose + 10% FBS, 0.0211 µM
[16] = RPMI 5 mM glucose + 10% FBS, 0.0632 µM
[17] = RPMI 5 mM glucose + 10% FBS, 0.19 µM
[18] = RPMI 5 mM glucose + 10% FBS, 0.569 µM
[19] = RPMI 5 mM glucose + 10% FBS, 1.71 µM
[20] = RPMI 5 mM glucose + 10% FBS, 5.12 µM
[21] = RPMI 5 mM glucose + 10% FBS, 15.4 µM
[22] = RPMI 5 mM glucose + 10% FBS, 46.1 µM
[23] = RPMI 5 mM glucose + 10% dialyzed FBS, 0.000781 µM
[24] = RPMI 5 mM glucose + 10% dialyzed FBS, 0.00234 µM
[25] = RPMI 5 mM glucose + 10% dialyzed FBS, 0.00702 µM
[26] = RPMI 5 mM glucose + 10% dialyzed FBS, 0.0211 µM
[27] = RPMI 5 mM glucose + 10% dialyzed FBS, 0.0632 µM
[28] = RPMI 5 mM glucose + 10% dialyzed FBS, 0.19 µM
[29] = RPMI 5 mM glucose + 10% dialyzed FBS, 0.569 µM
[30] = RPMI 5 mM glucose + 10% dialyzed FBS, 1.71 µM
[31] = RPMI 5 mM glucose + 10% dialyzed FBS, 5.12 µM
[32] = RPMI 5 mM glucose + 10% dialyzed FBS, 15.4 µM
[33] = RPMI 5 mM glucose + 10% dialyzed FBS, 46.1 µM

| SMILES | cell viability [1] [%] | cell viability [2] [%] | cell viability [3] [%] | cell viability [4] [%] | cell viability [5] [%] | cell viability [6] [%] | cell viability [7] [%] | cell viability [8] [%] | cell viability [9] [%] | cell viability [10] [%] | cell viability [11] [%] | cell viability [12] [%] | cell viability [13] [%] | cell viability [14] [%] | cell viability [15] [%] | cell viability [16] [%] | cell viability [17] [%] | cell viability [18] [%] | cell viability [19] [%] | cell viability [20] [%] | cell viability [21] [%] | cell viability [22] [%] | cell viability [23] [%] | cell viability [24] [%] | cell viability [25] [%] | cell viability [26] [%] | cell viability [27] [%] | cell viability [28] [%] | cell viability [29] [%] | cell viability [30] [%] | cell viability [31] [%] | cell viability [32] [%] | cell viability [33] [%] |
| --- | --- | --- | --- | --- | --- | --- | --- | --- | --- | --- | --- | --- | --- | --- | --- | --- | --- | --- | --- | --- | --- | --- | --- | --- | --- | --- | --- | --- | --- | --- | --- | --- | --- |
| CC(C(=O)O)c1ccc2c(c1)CC(=O)c1ccccc1S2 (stereo unspecified) | 114 | 106 | 113 | 120 | 121 | 128 | 109 | 87.2 | 68.2 | 25.7 | 30.6 | 104 | 115 | 116 | 112 | 107 | 106 | 103 | 103 | 103 | 22.3 | 21.2 | 99.6 | 116 | 94.2 | 105 | 113 | 105 | 103 | 85.3 | 87.7 | 23 | 24 |
| CNC(=O)c1ccc(Nc2cc(Nc3ccccc3[S+](=O)([O-])C(C)C)c3cc[nH]c3n2)nc1 | 98.4 | 105 | 111 | 105 | 116 | 102 | 108 | 91.7 | 77.6 | 70.6 | 31.7 | 98 | 100 | 101 | 103 | 102 | 106 | 108 | 102 | 49.2 | 51.9 | 25.1 | 89.1 | 99.1 | 101 | 106 | 102 | 102 | 109 | 95.7 | 57.2 | 56.7 | 34 |
